According to ChEMBL document CHEMBL4011590, “Structure-activity relationship studies on 3,5-dinitrophenyl tetrazoles as antitubercular agents” (Eur J Med Chem, 2017):
Values after ≈ are worked out from the molar mass of the structure shown.

Experiments:
Assay type in all cases: functional
[1] = tested on: Mycobacterium tuberculosis; experiment: Antimycobacterial activity against Mycobacterium tuberculosis H37Rv CNCTC My 331/88 after 21 days by micromethod; conditions: H37Rv CNCTC My 331/88, 504 h
Staphylococcus aureus [2] = experiment: Antibacterial activity against methicillin-resistant Staphylococcus aureus HK5996/08 after 24 hrs by broth microdilution method; conditions: HK5996/08, 24 h
Trichosporon asahii [3] = experiment: Antifungal activity against Trichosporon asahii 1188 after 48 hrs by broth microdilution method; conditions: Trichosporon asahii, 1188, 48 h
Escherichia coli [4] = experiment: Antibacterial activity against Escherichia coli ATCC 8739 after 24 hrs by broth microdilution method; conditions: ATCC 8739, 24 h
Staphylococcus aureus [5] = experiment: Antibacterial activity against Staphylococcus aureus ATCC 6538 after 48 hrs by broth microdilution method; conditions: ATCC 6538, 48 h
Klebsiella pneumoniae [6] = experiment: Antibacterial activity against extended spectrum beta-lactamase producing Klebsiella pneumoniae HK14368/08 after 48 hrs by broth microdilution method; conditions: HK14368/08, 48 h
Candida albicans [7] = experiment: Antifungal activity against Candida albicans ATCC 44859 after 48 hrs by broth microdilution method; conditions: ATCC 44859, 48 h
[8] = tested on: Mycobacterium tuberculosis; experiment: Antimycobacterial activity against Mycobacterium tuberculosis H37Rv CNCTC My 331/88 after 14 days by micromethod; conditions: H37Rv CNCTC My 331/88, 336 h
Mycobacterium kansasii [9] = experiment: Antimycobacterial activity against Mycobacterium kansasii CNCTC My 235/80 after 21 days by micromethod; conditions: CNCTC My 235/80, 504 h
Pseudomonas aeruginosa [10] = experiment: Antibacterial activity against Pseudomonas aeruginosa ATCC 9027 after 24 hrs by broth microdilution method; conditions: ATCC 9027, 24 h
Lichtheimia corymbifera [11] = experiment: Antifungal activity against Absidia corymbifera 272 after 24 hrs by broth microdilution method; conditions: Lichtheimia corymbifera, 272, 24 h
Klebsiella pneumoniae [12] = experiment: Antibacterial activity against Klebsiella pneumoniae HK11750/08 after 24 hrs by broth microdilution method; conditions: HK11750/08, 24 h
Candida albicans [13] = experiment: Antifungal activity against Candida albicans ATCC 44859 after 24 hrs by broth microdilution method; conditions: ATCC 44859, 24 h
Enterococcus sp. [14] = experiment: Antibacterial activity against Enterococcus sp. HK14365/08 after 24 hrs by broth microdilution method; conditions: HK14365/08, 24 h
Enterococcus sp. [15] = experiment: Antibacterial activity against Enterococcus sp. HK14365/08 after 48 hrs by broth microdilution method; conditions: HK14365/08, 48 h
Nakaseomyces glabratus [16] = experiment: Antifungal activity against Candida glabrata 20/I after 48 hrs by broth microdilution method
Candida tropicalis [17] = experiment: Antifungal activity against Candida tropicalis 156 after 48 hrs by broth microdilution method; conditions: Candida tropicalis, 156, 48 h
[18] = tested on: Staphylococcus epidermidis; experiment: Antibacterial activity against Staphylococcus epidermidis HK6966/08 after 48 hrs by broth microdilution method; conditions: HK6966/08, 48 h
[19] = tested on: Trichophyton mentagrophytes; experiment: Antifungal activity against Trichophyton mentagrophytes 445 after 120 hrs by broth microdilution method; conditions: Trichophyton mentagrophytes, 445, 120 h
Mycobacterium avium [20] = experiment: Antimycobacterial activity against Mycobacterium avium CNCTC My 330/80 after 21 days by micromethod; conditions: CNCTC My 330/80, 504 h
Klebsiella pneumoniae [21] = experiment: Antibacterial activity against Klebsiella pneumoniae HK11750/08 after 48 hrs by broth microdilution method; conditions: HK11750/08, 48 h
Aspergillus fumigatus [22] = experiment: Antifungal activity against Aspergillus fumigatus 231 after 48 hrs by broth microdilution method; conditions: Aspergillus fumigatus, 231, 48 h
[23] = tested on: Staphylococcus epidermidis; experiment: Antibacterial activity against Staphylococcus epidermidis HK6966/08 after 24 hrs by broth microdilution method; conditions: HK6966/08, 24 h
Pichia kudriavzevii [24] = experiment: Antifungal activity against Candida krusei E28 after 24 hrs by broth microdilution method; conditions: E28, 24 h
Pichia kudriavzevii [25] = experiment: Antifungal activity against Candida krusei E28 after 48 hrs by broth microdilution method; conditions: E28, 48 h
Mycobacterium avium [26] = experiment: Antimycobacterial activity against Mycobacterium avium CNCTC My 330/80 after 14 days by micromethod; conditions: CNCTC My 330/80, 336 h
Mycobacterium kansasii [27] = experiment: Antimycobacterial activity against Mycobacterium kansasii isolate 6509/96 after 7 days by micromethod; conditions: isolate 6509/96, 168 h
Pseudomonas aeruginosa [28] = experiment: Antibacterial activity against Pseudomonas aeruginosa ATCC 9027 after 48 hrs by broth microdilution method; conditions: ATCC 9027, 48 h
Aspergillus fumigatus [29] = experiment: Antifungal activity against Aspergillus fumigatus 231 after 24 hrs by broth microdilution method; conditions: Aspergillus fumigatus, 231, 24 h
Mycobacterium kansasii [30] = experiment: Antimycobacterial activity against Mycobacterium kansasii isolate 6509/96 after 21 days by micromethod; conditions: isolate 6509/96, 504 h
Mycobacterium kansasii [31] = experiment: Antimycobacterial activity against Mycobacterium kansasii isolate 6509/96 after 14 days by micromethod; conditions: isolate 6509/96, 336 h
Nakaseomyces glabratus [32] = experiment: Antifungal activity against Candida glabrata 20/I after 24 hrs by broth microdilution method
Mycobacterium kansasii [33] = experiment: Antimycobacterial activity against Mycobacterium kansasii CNCTC My 235/80 after 7 days by micromethod; conditions: CNCTC My 235/80, 168 h
Staphylococcus aureus [34] = experiment: Antibacterial activity against Staphylococcus aureus ATCC 6538 after 24 hrs by broth microdilution method; conditions: ATCC 6538, 24 h
Mycobacterium kansasii [35] = experiment: Antimycobacterial activity against Mycobacterium kansasii CNCTC My 235/80 after 14 days by micromethod; conditions: CNCTC My 235/80, 336 h
Candida tropicalis [36] = experiment: Antifungal activity against Candida tropicalis 156 after 24 hrs by broth microdilution method; conditions: Candida tropicalis, 156, 24 h
[37] = tested on: Trichophyton mentagrophytes; experiment: Antifungal activity against Trichophyton mentagrophytes 445 after 72 hrs by broth microdilution method; conditions: Trichophyton mentagrophytes, 445, 72 h
Staphylococcus aureus [38] = experiment: Antibacterial activity against methicillin-resistant Staphylococcus aureus HK5996/08 after 48 hrs by broth microdilution method; conditions: HK5996/08, 48 h
Klebsiella pneumoniae [39] = experiment: Antibacterial activity against extended spectrum beta-lactamase producing Klebsiella pneumoniae HK14368/08 after 24 hrs by broth microdilution method; conditions: HK14368/08, 24 h
Lichtheimia corymbifera [40] = experiment: Antifungal activity against Absidia corymbifera 272 after 48 hrs by broth microdilution method; conditions: Lichtheimia corymbifera, 272, 48 h
Escherichia coli [41] = experiment: Antibacterial activity against Escherichia coli ATCC 8739 after 48 hrs by broth microdilution method; conditions: ATCC 8739, 48 h
Trichosporon asahii [42] = experiment: Antifungal activity against Trichosporon asahii 1188 after 24 hrs by broth microdilution method; conditions: Trichosporon asahii, 1188, 24 h

Cn1nnnc1SCn1nnc(-c2cc([N+](=O)[O-])cc([N+](=O)[O-])c2)n1
MIC99 [1]: 2 µM (≈ 0.729 µg/mL) | MIC (Staphylococcus aureus [2]): > 500 µM | MIC (Trichosporon asahii [3]): > 500 µM | MIC (Escherichia coli [4]): > 500 µM | MIC (Staphylococcus aureus [5]): > 500 µM | MIC (Klebsiella pneumoniae [6]): > 500 µM | MIC (Candida albicans [7]): > 500 µM | MIC99 [8]: 2 µM (≈ 0.729 µg/mL) | MIC99 (Mycobacterium kansasii [9]): 32 µM (≈ 11.7 µg/mL) | MIC (Pseudomonas aeruginosa [10]): > 500 µM | MIC (Lichtheimia corymbifera [11]): > 500 µM | MIC (Klebsiella pneumoniae [12]): > 500 µM | MIC (Candida albicans [13]): > 500 µM | MIC (Enterococcus sp. [14]): 500 µM (≈ 182 µg/mL) | MIC (Enterococcus sp. [15]): 500 µM (≈ 182 µg/mL) | MIC (Nakaseomyces glabratus [16]): > 500 µM | MIC (Candida tropicalis [17]): > 500 µM | MIC [18]: 125 µM (≈ 45.5 µg/mL) | MIC [19]: > 500 µM | MIC99 (Mycobacterium avium [20]): 32 µM (≈ 11.7 µg/mL) | MIC (Klebsiella pneumoniae [21]): > 500 µM | MIC (Aspergillus fumigatus [22]): > 500 µM | MIC [23]: 125 µM (≈ 45.5 µg/mL) | MIC (Pichia kudriavzevii [24]): > 500 µM | MIC (Pichia kudriavzevii [25]): > 500 µM | MIC99 (Mycobacterium avium [26]): 32 µM (≈ 11.7 µg/mL) | MIC99 (Mycobacterium kansasii [27]): 16 µM (≈ 5.83 µg/mL) | MIC (Pseudomonas aeruginosa [28]): > 500 µM | MIC (Aspergillus fumigatus [29]): > 500 µM | MIC99 (Mycobacterium kansasii [30]): 32 µM (≈ 11.7 µg/mL) | MIC99 (Mycobacterium kansasii [31]): 32 µM (≈ 11.7 µg/mL) | MIC (Nakaseomyces glabratus [32]): > 500 µM | MIC99 (Mycobacterium kansasii [33]): 16 µM (≈ 5.83 µg/mL) | MIC (Staphylococcus aureus [34]): > 500 µM | MIC99 (Mycobacterium kansasii [35]): 32 µM (≈ 11.7 µg/mL) | MIC (Candida tropicalis [36]): > 500 µM | MIC [37]: > 500 µM | MIC (Staphylococcus aureus [38]): > 500 µM | MIC (Klebsiella pneumoniae [39]): > 500 µM | MIC (Lichtheimia corymbifera [40]): > 500 µM | MIC (Escherichia coli [41]): > 500 µM | MIC (Trichosporon asahii [42]): > 500 µM

O=[N+]([O-])c1cc(-c2nnn(CSc3nnnn3-c3ccccc3)n2)cc([N+](=O)[O-])c1
MIC99 [1]: 0.25 µM (≈ 0.107 µg/mL) | MIC (Staphylococcus aureus [2]): > 125 µM | MIC (Trichosporon asahii [3]): > 125 µM | MIC (Escherichia coli [4]): > 125 µM | MIC (Staphylococcus aureus [5]): > 125 µM | MIC (Klebsiella pneumoniae [6]): > 125 µM | MIC (Candida albicans [7]): > 125 µM | MIC99 [8]: 0.125 µM (≈ 0.0533 µg/mL) | MIC99 (Mycobacterium kansasii [9]): 4 µM (≈ 1.71 µg/mL) | MIC (Pseudomonas aeruginosa [10]): > 125 µM | MIC (Lichtheimia corymbifera [11]): > 125 µM | MIC (Klebsiella pneumoniae [12]): > 125 µM | MIC (Candida albicans [13]): > 125 µM | MIC (Enterococcus sp. [14]): > 125 µM | MIC (Enterococcus sp. [15]): > 125 µM | MIC (Nakaseomyces glabratus [16]): > 125 µM | MIC (Candida tropicalis [17]): > 125 µM | MIC [18]: > 125 µM | MIC [19]: > 125 µM | MIC (Klebsiella pneumoniae [21]): > 125 µM | MIC (Aspergillus fumigatus [22]): > 125 µM | MIC [23]: > 125 µM | MIC (Pichia kudriavzevii [24]): > 125 µM | MIC (Pichia kudriavzevii [25]): > 125 µM | MIC99 (Mycobacterium kansasii [27]): 0.5 µM (≈ 0.213 µg/mL) | MIC (Pseudomonas aeruginosa [28]): > 125 µM | MIC (Aspergillus fumigatus [29]): > 125 µM | MIC99 (Mycobacterium kansasii [30]): 2 µM (≈ 0.853 µg/mL) | MIC99 (Mycobacterium kansasii [31]): 1 µM (≈ 0.426 µg/mL) | MIC (Nakaseomyces glabratus [32]): > 125 µM | MIC99 (Mycobacterium kansasii [33]): 1 µM (≈ 0.426 µg/mL) | MIC (Staphylococcus aureus [34]): > 125 µM | MIC99 (Mycobacterium kansasii [35]): 2 µM (≈ 0.853 µg/mL) | MIC (Candida tropicalis [36]): > 125 µM | MIC [37]: > 125 µM | MIC (Staphylococcus aureus [38]): > 125 µM | MIC (Klebsiella pneumoniae [39]): > 125 µM | MIC (Lichtheimia corymbifera [40]): > 125 µM | MIC (Escherichia coli [41]): > 125 µM | MIC (Trichosporon asahii [42]): > 125 µM
